Results: US12435061B2 (priority 2020, dated 2025)
Counter-ions that a name gives are not always drawn. Like-named read-outs stand apart in the source and are kept apart here.

Molecular target: hTRPV3 (Homo sapiens (Human), UniProt Q8NET8)
Assay: Whole-cell patch clamp, hTRPV3 Phase 1 / Phase 2 currents
Type: cell-based
Excerpt: Whole-cell patch clamp experiments permit the detection of currents through the TRPV3 channel in the cell line described above. A glass electrode is brought into contact with a single cell and the membrane is then ruptured, permitting control of the voltage of the cell membrane and measurement of currents flowing across the membrane using the amplifier attached to the electrode. A perfusion system permits control of the extracellular solution, including the addition of blockers and activators of the current. The current can be activated by heating this solution to 28° C. or warmer or by addition of 20 μM 2-APB to the solution.
TRPV3 cells were induced 20-48 hours, removed from growth plates, and replated at low density (to attain good single-cell physical separation) on glass coverslips for measurement. In some cases, cells were grown in low density overnight on glass coverslips. Patch clamp recordings were made in the whole-cell mode with a holding potential of −40 mV. Every 5 seconds, a voltage ramp was applied from −120 to +100 mV, 400 ms in duration. Currents elicited were quantified at −80 mV and +80 mV. […] External solution was Ringer's solution described above.
P1 refers to the Phase 1 current for human (h) TRPV3, and P2 refers to the Phase 2 current for human (h) TRPV3.
In Tables 3 and 4, Phase 1 refers to Phase 1 current for human (h) TRPV3 or rat (r) TRPV3, and Phase 2 refers to Phase 2 current for human (h) TRPV3 or rat (r) TRPV3. The hTRPV3 and rTRPV3 assays were performed as described herein. hERG refers to the inhibition the human ERG (hERG) channel. NaV1.5, refers to the pore forming aL-subunit of the voltage-dependent cardiac Na(+) channel and is an integral membrane protein involved in the initiation and conduction of action potentials. hTRPV3 HAMA IC50 refers to the IC50 of TRPV3 cells stably expressed in TRex-293 cells. Solubility Ringer refers to the compounds' solubility in Ringer's solution. LM T1/2 refers to liver microsome half-lives in either rat or human liver microsomes. FLIPR IC50 refers to the IC50 of the test compounds against recombinant hTRPV3 cells.

[1] = Phase 2 current, inward, whole-cell patch clamp, read-out: hTRPV3 Patch P2 Inwd
[2] = Phase 2 current, read-out: hTRPV3 (nM) (Phase 2)
[3] = Phase 1 current, inward, whole-cell patch clamp, read-out: hTRPV3 Patch P1 Inwd
[4] = Phase 1 current, read-out: hTRPV3 (nM) (Phase 1)

Sequence of hTRPV3 (Q8NET8 whole entry): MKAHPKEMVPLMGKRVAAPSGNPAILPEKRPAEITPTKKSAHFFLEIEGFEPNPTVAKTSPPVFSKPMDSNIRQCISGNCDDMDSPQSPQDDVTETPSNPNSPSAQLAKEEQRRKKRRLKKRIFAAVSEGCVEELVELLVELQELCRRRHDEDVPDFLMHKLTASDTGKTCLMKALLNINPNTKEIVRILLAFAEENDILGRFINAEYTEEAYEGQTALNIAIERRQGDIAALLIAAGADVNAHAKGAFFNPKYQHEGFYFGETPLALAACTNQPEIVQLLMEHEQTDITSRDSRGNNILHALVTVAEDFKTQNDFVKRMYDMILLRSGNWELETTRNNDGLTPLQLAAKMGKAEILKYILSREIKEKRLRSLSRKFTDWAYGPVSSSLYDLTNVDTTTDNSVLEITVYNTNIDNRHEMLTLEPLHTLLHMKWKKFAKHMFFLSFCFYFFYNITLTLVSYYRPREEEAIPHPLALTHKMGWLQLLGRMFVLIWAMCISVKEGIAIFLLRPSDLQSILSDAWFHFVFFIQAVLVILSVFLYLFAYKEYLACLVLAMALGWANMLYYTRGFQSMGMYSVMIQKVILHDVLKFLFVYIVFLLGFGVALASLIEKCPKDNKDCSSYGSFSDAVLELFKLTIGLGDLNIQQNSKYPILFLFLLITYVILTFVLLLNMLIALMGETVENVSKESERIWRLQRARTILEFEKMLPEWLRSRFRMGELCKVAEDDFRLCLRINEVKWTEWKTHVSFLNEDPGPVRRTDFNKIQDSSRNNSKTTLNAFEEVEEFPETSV

Row | SMILES | IC50 [1] | IC50 [2] | IC50 [3] | IC50 [4] | also measured
1 | N#Cc1cc(-c2ccccc2)ccc1N1CCC(Oc2ccc3ccccc3n2)C1=O (centres unmarked) [Compound 1-108, 4-(2-oxo-3-(quinolin-2-yloxy)pyrrolidin-1-yl)biphenyl-3-carbonitrile] | > 1000 nM | > 3200 nM | – | – | –
2 | COc1cc(-c2ccccc2Cl)ccc1N1CC[C@@H](Oc2ccc(C(F)(F)F)cn2)C1 [Compound 1-112, (R)-2-(1-(2′-chloro-3-methoxybiphenyl-4-yl)pyrrolidin-3-yloxy)-5-(trifluoromethyl)pyridine] | – | – | > 1000 nM | ~2900 nM | hTRPV3 (nM) (Phase 2) (Phase 2 current): Incomplete Block
3 | NC(=O)c1cc(-c2ccccc2Cl)ccc1N1CCC(Oc2ccc3ccccc3n2)C1=O (centres unmarked) [Compound 1-114, 2′-chloro-4-(2-oxo-3-(quinolin-2-yloxy)pyrrolidin-1-yl)biphenyl-3-carboxamide] | > 1000 nM | ~3150 nM | > 1000 nM | ~3900 nM | –
4 | Nc1cc(-c2ccccc2Cl)ccc1N1CC[C@@H](Oc2ccc(C(F)(F)F)cn2)C1 [Compound 1-116] | – | – | – | – | hTRPV3 (nM) (Phase 1) (Phase 1 current): Agonist/ Antagonist (Phase 1) Agonist/ Antagonist (Phase 2); hTRPV3 (nM) (Phase 2) (Phase 2 current): Agonist/ Antagonist (Phase 1) Agonist/ Antagonist (Phase 2)
5 | NCc1cc(-c2ccccc2Cl)ccc1N1CC[C@H](Oc2ccc(C(F)(F)F)cn2)C1 [Compound 1-118, (S)-(2′-chloro-4-(3-(5-(trifluoromethyl)pyridin-2-yloxy)pyrrolidin-1-yl)biphenyl-3-yl)methanamine] | > 1000 nM | < 3200 nM | > 1000 nM | ~1300 nM | –
6 | NCc1cc(-c2ccccc2)ccc1N1CC[C@H](Oc2ccc(C(F)(F)F)cn2)C1 [Compound 1-119, (S)-(4-(3-(5-(trifluoromethyl)pyridin-2-yloxy)pyrrolidin-1-yl)biphenyl-3-yl)methanamine] | > 1000 nM | > 3200 nM | – | – | –
7 | COc1cc(-c2ccccc2)ccc1N1CC[C@@H](Oc2ncc(C(F)(F)F)cc2Cl)C1 [Compound 1-120, (R)-3-chloro-2-(1-(3-methoxybiphenyl-4-yl)pyrrolidin-3-yloxy)-5-(trifluoromethyl)pyridine] | – | > 3200 nM | – | > 3200 nM | IC50 (hTRPV3 Patch P1 Inwd (nM), Phase 1 current, inward, whole-cell patch clamp): > 1000 nM; IC50 (hTRPV3 Patch P2 Inwd (nM), Phase 2 current, inward, whole-cell patch clamp): > 1000 nM
8 | NCc1cc(-c2ccccc2Cl)ccc1N1CC[C@H](Oc2ncccc2Cl)C1 [Compound 1-122, (S)-(2′-chloro-4-(3-(3-chloropyridin-2-yloxy)pyrrolidin-1-yl)biphenyl-3-yl)methanamine hydrochloride] | > 1000 nM | < 3200 nM | > 1000 nM | > 3200 nM | –
9 | NC(=O)c1cc(-c2ccccc2)ccc1N1CCC(Oc2ccc3ccccc3n2)C1=O (centres unmarked) [Compound 1-123, 4-(2-oxo-3-(quinolin-2-yloxy)pyrrolidin-1-yl)biphenyl-3-carboxamide] | – | – | > 1000 nM | > 3200 nM | –
10 | NC(=O)c1cc(Oc2ccccc2)ccc1N1CC[C@H](Oc2ccc(C(F)(F)F)cn2)C1 [Compound 1-124, (S)-5-phenoxy-2-(3-(5-(trifluoromethyl)pyridin-2-yloxy)pyrrolidin-1-yl)benzamide] | – | – | – | – | IC50 (hTRPV3 Patch P1 Inwd (nM)): 100 to 1000 nM; IC50 (read-out: hTRPV3 (nM) (Phase 1)): 729 nM
11 | NCc1cc(-c2ccccc2)ccc1N1CC[C@H](Oc2ncccc2Cl)C1 [Compound 1-125, (S)-(4-(3-(3-chloropyridin-2-yloxy)pyrrolidin-1-yl)biphenyl-3-yl)methanamine hydrochloride] | > 1000 nM | > 3200 nM | – | – | –
12 | OCc1cc(-c2ccccc2)ccc1N1CC[C@H](Oc2ncccc2Cl)C1 [Compound 1-126, (S)-(4-(3-(3-chloropyridin-2-yloxy)pyrrolidin-1-yl)biphenyl-3-yl)methanol] | 100 to 1000 nM | 369 nM | – | – | –
13 | CC(=O)NCc1cc(-c2ccccc2Cl)ccc1N1CC[C@H](Oc2ccc(C(F)(F)F)cn2)C1 [Compound 1-127, (S)—N-((2′-chloro-4-(3-(5-(trifluoromethyl)pyridin-2-yloxy)pyrrolidin-1-yl)biphenyl-3-yl)methyl)acetamide] | > 1000 nM | 1140 nM | – | – | –
14 | NC(=O)c1ccc(O[C@H]2CCN(c3ccc(-c4ccccc4)cc3CO)C2)nc1 [Compound 1-144, (S)-6-(1-(3-(hydroxymethyl)biphenyl-4-yl)pyrrolidin-3-yloxy)nicotinamide] | > 1000 nM | 4220 nM | > 1000 nM | 1280 nM | –
15 | NC(=O)c1cc(Cc2ccccc2)ccc1N1CC[C@H](Oc2ncccc2Cl)C1 [Compound 1-145, (S)-5-benzyl-2-(3-(3-chloropyridin-2-yloxy)pyrrolidin-1-yl)benzamide] | 100 to 1000 nM | 749 nM | > 1000 nM | 1950 nM | –
16 | OCc1cc(-c2ccccc2)ccc1N1CC[C@H](Oc2ccc(Cl)cn2)C1 [Compound 1-147, (S)-(4-(3-(5-chloropyridin-2-yloxy)pyrrolidin-1-yl)biphenyl-3-yl)methanol] | – | – | 100 to 1000 nM | 171 nM | –
17 | OCC(O)c1cc(-c2ccccc2)ccc1N1CC[C@H](Oc2ccc(C(F)(F)F)cn2)C1 (stereo partly drawn) [Compound 1-148, 1-(4-((S)-3-(5-(trifluoromethyl)pyridin-2-yloxy)pyrrolidin-1-yl)biphenyl-3-yl)ethane-1,2-diol] | 100 to 1000 nM | 699 nM | 100 to 1000 nM | 550 nM | –
18 | CCc1ccccc1-c1ccc(N2CC[C@H](Oc3ccc(C(F)(F)F)cn3)C2)c(CO)c1 [Compound 1-149, (S)-(2′-ethyl-4-(3-(5-(trifluoromethyl)pyridin-2-yloxy)pyrrolidin-1-yl)biphenyl-3-yl)methanol] | < 10 nM | 10.7 nM | 10 to 100 nM | 34.7 nM | –
19 | OCc1cc(-c2ccccc2F)ccc1N1CC[C@H](Oc2ccc(C(F)(F)F)cn2)C1 [Compound 1-150, (S)-(2′-fluoro-4-(3-(5-(trifluoromethyl)pyridin-2-yloxy)pyrrolidin-1-yl)biphenyl-3-yl)methanol] | 10 to 100 nM | 74.7 nM | 10 to 100 nM | 71.7 nM | –
20 | O=C(NCCO)c1cc(-c2ccccc2)ccc1N1CC[C@H](Oc2ccc(C(F)(F)F)cn2)C1 [Compound 1-153, (S)—N-(2-hydroxyethyl)-4-(3-(5-(trifluoromethyl)pyridin-2-yloxy)pyrrolidin-1-yl)biphenyl-3-carboxamide] | – | – | > 1000 nM | 4420 nM | –
21 | O=C(NCCO)c1cc(-c2ccccc2Cl)ccc1N1CC[C@H](Oc2ccc(C(F)(F)F)cn2)C1 [Compound 1-156, (S)-2′-chloro-N-(2-hydroxyethyl)-4-(3-(5-(trifluoromethyl)pyridin-2-yloxy)pyrrolidin-1-yl)biphenyl-3-carboxamide] | – | – | > 1000 nM | 3750 nM | –
22 | Cc1cccnc1O[C@H]1CCN(c2ccc(Oc3ccccc3)cc2C(N)=O)C1 [Compound 1-163] | – | – | > 1000 nM | 2180 nM | –
23 | O=C(O)c1cc(-c2ccccc2)ccc1N1CC[C@H](Oc2ccc(C(F)(F)F)cn2)C1 [Compound 1-165, (S)-4-(3-(5-(trifluoromethyl)pyridin-2-yloxy)pyrrolidin-1-yl)biphenyl-3-carboxylic acid] | – | – | > 1000 nM | > 3200 nM | –
24 | O=C(O)c1cc(-c2ccccc2Cl)ccc1N1CC[C@H](Oc2ccc(C(F)(F)F)cn2)C1 [Compound 1-166, (S)-2′-chloro-4-(3-(5-(trifluoromethyl)pyridin-2-yloxy)pyrrolidin-1-yl)biphenyl-3-carboxylic acid] | > 1000 nM | ~2230 nM | > 1000 nM | ~2210 nM | –
25 | Cc1cccnc1O[C@H]1CCN(c2ccc(-c3ccccc3)cc2C(C)O)C1 (stereo partly drawn) [Compound 1-169, 1-(4-((S)-3-(3-methylpyridin-2-yloxy)pyrrolidin-1-yl)biphenyl-3-yl)ethanol] | 100 to 1000 nM | 655 nM | 100 to 1000 nM | 476 nM | –
26 | OCCCc1cc(-c2ccccc2)ccc1N1CC[C@H](Oc2ncccc2C(F)(F)F)C1 [Compound 1-170, (S)-3-(4-(3-(3-(trifluoromethyl)pyridin-2-yloxy)pyrrolidin-1-yl)biphenyl-3-yl)propan-1-ol] | 100 to 1000 nM | 551 nM | – | – | –
27 | Cc1cccnc1O[C@H]1CCN(c2ccc(-c3ccccc3Cl)cc2C(C)O)C1 (stereo partly drawn) [Compound 1-172, 1-(2′-chloro-4-((S)-3-(3-methylpyridin-2-yloxy)pyrrolidin-1-yl)biphenyl-3-yl)ethanol] | – | – | 100 to 1000 nM | 882 nM | –
